Reference: US5980913A, “Peptides having immunomodulatory activity” (Biochem Pharma, Inc., priority 1994, dated 1999)
Where a SMILES comes first, the peptide text is derived from it. [ ]: non-standard residue; d: D form.

Test system: blood cell subsets (cell surface antigens)
Test: In vivo/ex vivo immunophenotyping in the blood, mice treated 4 consecutive days, blood taken on day 5
Parameters: species or system C57BL/6 mice
Description: C57BL.backslash.6 mice are treated with 0, 50, 100, 200, and 300 mg/kg of drug (in saline) for 4 consecutive days. Blood is taken by cardiac puncture on day 5, and the lymphocytes are isolated from spleen in the following manner:
1. Immunophenotyping (blood and spleen)
Cell immunophenotyping is performed on blood and spleen. The following cell surface antigens are analyzed:
CD4 (T helper/inducer, binds class II-restricted T cells);
CD8 (cytotoxic T cells, CTL adhesion);
MAC-1 (monocyte/macrophage);
NK (natural killer cells);
CD45 (all leukocytes, protein tyrosine phosphatase).

NCCCC[C@@H](N)C(=O)N[C@@H](CC(N)=O)C(=O)N1CCC[C@H]1C(=O)N[C@@H](Cc1ccc(O)cc1)C(=O)O [PEPTIDE #5, H-(D-Lys)-Asn-Pro-Tyr-OH] (H-[dK]NPY-OH)
change of relative percentage of T cells (TCR, CD4+ and CD8+ cell surface antigen) (in words): reduced in a significant manner
CD4+ CD8+ cell subset, relative percentage, MEAN (50 mg/kg, first assay): 2.03
CD4+ CD8- cell subset, relative percentage, MEAN (50 mg/kg, first assay): 18.15
CD4+ CD11b+ cell subset, relative percentage, MEAN (50 mg/kg, first assay): 1.18
CD4+ CD11b- cell subset, relative percentage, MEAN (50 mg/kg, first assay): 22.55
CD4- CD8+ cell subset, relative percentage, MEAN (50 mg/kg, first assay): 5.15
CD4- CD8- cell subset, relative percentage, MEAN (50 mg/kg, first assay): 74.68
CD4- CD11b+ cell subset, relative percentage, MEAN (50 mg/kg, first assay): 12.08
CD4- CD11b- cell subset, relative percentage, MEAN (50 mg/kg, first assay): 64.15
CD45+ CD4+ cell subset, relative percentage, MEAN (50 mg/kg, first assay): 17.00
CD45+ CD4- cell subset, relative percentage, MEAN (50 mg/kg, first assay): 57.68
CD45+ CD8+ cell subset, relative percentage, MEAN (50 mg/kg, first assay): 6.53
CD45+ CD8- cell subset, relative percentage, MEAN (50 mg/kg, first assay): 62.48
CD45- CD4+ cell subset, relative percentage, MEAN (50 mg/kg, first assay): 3.15
CD45- CD4- cell subset, relative percentage, MEAN (50 mg/kg, first assay): 22.15
CD45- CD8- cell subset, relative percentage, MEAN (50 mg/kg, first assay): 30.35
CD45- CDE8+ cell subset, relative percentage, MEAN (50 mg/kg, first assay): 0.68
Ly5(B) cell subset, relative percentage, MEAN (50 mg/kg, first assay): 57.88
NK+ CD3+ cell subset, relative percentage, MEAN (50 mg/kg, first assay): 2.13
NK+ CD3- cell subset, relative percentage, MEAN (50 mg/kg, first assay): 5.70
NK- CD3+ cell subset, relative percentage, MEAN (50 mg/kg, first assay): 33.30
NK- CD3- cell subset, relative percentage, MEAN (50 mg/kg, first assay): 58.93
TCR(T) cell subset, relative percentage, MEAN (50 mg/kg, first assay): 31.53
CD4+ CD8+ cell subset, relative percentage, MEAN (50 mg/kg, second assay): 0.43
CD4+ CD8- cell subset, relative percentage, MEAN (50 mg/kg, second assay): 20.65
CD4+ CD11b+ cell subset, relative percentage, MEAN (50 mg/kg, second assay): 0.13
CD4+ CD11b- cell subset, relative percentage, MEAN (50 mg/kg, second assay): 15.38
CD4- CD8+ cell subset, relative percentage, MEAN (50 mg/kg, second assay): 7.70
CD4- CD8- cell subset, relative percentage, MEAN (50 mg/kg, second assay): 71.20
CD4- CD11b+ cell subset, relative percentage, MEAN (50 mg/kg, second assay): 6.73
CD4- CD11b- cell subset, relative percentage, MEAN (50 mg/kg, second assay): 77.78
CD45+ CD4+ cell subset, relative percentage, MEAN (50 mg/kg, second assay): 18.48
CD45+ CD4- cell subset, relative percentage, MEAN (50 mg/kg, second assay): 68.23
CD45+ CD8+ cell subset, relative percentage, MEAN (50 mg/kg, second assay): 8.10
CD45+ CD8- cell subset, relative percentage, MEAN (50 mg/kg, second assay): 79.70
CD45- CD4+ cell subset, relative percentage, MEAN (50 mg/kg, second assay): 2.25
CD45- CD4- cell subset, relative percentage, MEAN (50 mg/kg, second assay): 11.05
CD45- CD8+ cell subset, relative percentage, MEAN (50 mg/kg, second assay): 0.03
CD45- CD8- cell subset, relative percentage, MEAN (50 mg/kg, second assay): 12.15
Ly5(B) cell subset, relative percentage, MEAN (50 mg/kg, second assay): 58.6
NK+ CD3+ cell subset, relative percentage, MEAN (50 mg/kg, second assay): 3.00
NK+ CD3- cell subset, relative percentage, MEAN (50 mg/kg, second assay): 7.88
NK- CD3+ cell subset, relative percentage, MEAN (50 mg/kg, second assay): 31.05
NK- CD3- cell subset, relative percentage, MEAN (50 mg/kg, second assay): 58.10
TCR(T) cell subset, relative percentage, MEAN (50 mg/kg, second assay): 35.73
CD4+ CD8+ cell subset, relative percentage, MEAN (100 mg/kg, first assay): 2.10
CD4+ CD8- cell subset, relative percentage, MEAN (100 mg/kg, first assay): 17.90
CD4+ CD11b+ cell subset, relative percentage, MEAN (100 mg/kg, first assay): 1.10
CD4+ CD11b- cell subset, relative percentage, MEAN (100 mg/kg, first assay): 20.30
CD4- CD8+ cell subset, relative percentage, MEAN (100 mg/kg, first assay): 6.03
CD4- CD8- cell subset, relative percentage, MEAN (100 mg/kg, first assay): 73.95
CD4- CD11b+ cell subset, relative percentage, MEAN (100 mg/kg, first assay): 11.03
CD4- CD11b- cell subset, relative percentage, MEAN (100 mg/kg, first assay): 67.65
CD45+ CD4+ cell subset, relative percentage, MEAN (100 mg/kg, first assay): 16.78
CD45+ CD4- cell subset, relative percentage, MEAN (100 mg/kg, first assay): 58.75
CD45+ CD8+ cell subset, relative percentage, MEAN (100 mg/kg, first assay): 7.10
CD45+ CD8- cell subset, relative percentage, MEAN (100 mg/kg, first assay): 63.45
CD45- CD4+ cell subset, relative percentage, MEAN (100 mg/kg, first assay): 3.25
CD45- CD4- cell subset, relative percentage, MEAN (100 mg/kg, first assay): 21.23
CD45- CD8- cell subset, relative percentage, MEAN (100 mg/kg, first assay): 28.38
CD45- CDE8+ cell subset, relative percentage, MEAN (100 mg/kg, first assay): 1.03
Ly5(B) cell subset, relative percentage, MEAN (100 mg/kg, first assay): 58.73
NK+ CD3+ cell subset, relative percentage, MEAN (100 mg/kg, first assay): 2.43
NK+ CD3- cell subset, relative percentage, MEAN (100 mg/kg, first assay): 6.00
NK- CD3+ cell subset, relative percentage, MEAN (100 mg/kg, first assay): 33.58
NK- CD3- cell subset, relative percentage, MEAN (100 mg/kg, first assay): 57.95
TCR(T) cell subset, relative percentage, MEAN (100 mg/kg, first assay): 32.23
CD4+ CD8+ cell subset, relative percentage, MEAN (100 mg/kg, second assay): 0.33
CD4+ CD8- cell subset, relative percentage, MEAN (100 mg/kg, second assay): 25.00
